Experimental data: patent US10301286B2, “Piperazine derivative” (Astellas Pharma Inc., priority 2015, dated 2019)
Structures can show the parent of a compound that is named as a salt.

Columns and labels:
human MC4 receptor = human MC4 receptor (Homo sapiens (Human), UniProt P32245); test: Human MC receptor activation, cAMP production in cells expressing human MC4 receptor; type: cell-based; details: FreeStyle 293-F cells transiently expressing human MC4 receptor, α-MSH maximum = 100%
From the text: (§1) (1) Construction of Human MC Receptor-Expressing Vector
(§2) A human MC4 receptor gene (GenBank Accession No.: NM_005912.2), a human MC1 receptor gene (GenBank Accession No.: NM_002386.3), or a human MC3 receptor gene (GenBank Accession No.: NM_019888.3) was introduced into an expression vector pcDNA™ 3.1/V5-His TOPO (registered trademark) (Thermo Fisher Scientific Inc.).
(§3) (2) Construction of Cells Transiently Expressing Human MC Receptor
(§4) An expression vector for a human MC4, MC1, or MC3 receptor was introduced into FreeStyle™ 293-F cell (Thermo Fisher Scientific Inc., product number: R790-07). For the introduction, electroporation was employed. That is, 1×10^7 FreeStyle™ 293-F cell were suspended in 80 μL of an electroporation buffer (Thermo Fisher Scientific Inc., product number: B201-100), and 20 μg of the expression vector was added thereto. The resultant was put into a cuvette (OC-100 Processing Assembly, MaxCyte, Inc.) and electroporated with MaxCyte SIX (registered trademark) (MaxCyte, Inc.). The cells were cultured over one day, suspended in a Cell Banker (registered trademark) 1 (JUJI FIELD Inc.), product number: BLC-1), and stored frozen until their use.
(§5) (3) Measurement of Amount of cAMP Produced
(§6) Measurement was carried out by using a LANCE (registered trademark) Ultra cAMP Kit (PerkinElmer, Inc.) in accordance with the attached instructions. That is, after dissolution in DMSO, the test compound (a final concentration of 1 pM to 30 μM) diluted with an assay buffer (Hank's balanced salt solution, 5 mM 4-(2-hydroxyethyl)-1-piperazineethanesulfonic acid (HEPES), 0.5 mM 3-isobutyl-1-methylxanthine (IBMX), 0.1% bovine serum albumin, pH 7.4), or α-MSH (Bachem Inc., a final concentration of 1 pM to 30 μM) was added to OptiPlate-384 (PerkinElmer, Inc.). Furthermore, a suspension of cells transiently expressing the human MC4, MC1, or MC3 receptor prepared by using the assay buffer was added thereto at 1,000 cells/well, followed by being left to stand at room temperature for about 1 hour. Thereafter, an Eu-cAMP tracer solution and an ULight™-anti-cAMP solution were added thereto, followed by being left to stand at room temperature for about 1 hour. The amount of cAMP was calculated using EnVision (registered trademark) (PerkinElmer Inc.).
(§7) For the agonistic activity, an efficacy (EC50 (μM)) was calculated by a non-linear regression method with a Sigmoid-Emax model, by defining the maximum reaction with α-MSH as 100% and the reaction with the vehicle alone as 0%, respectively.

human MC1 receptor = human MC1 receptor (Homo sapiens (Human), UniProt Q01726); test: Human MC receptor activation, cAMP production in cells expressing human MC1 receptor; type: cell-based; details: FreeStyle 293-F cells transiently expressing human MC1 receptor, α-MSH maximum = 100%
From the text: as §1, §2, §3, §4, §5, §6, §7

human MC3 receptor = human MC3 receptor (Homo sapiens (Human), UniProt P41968); test: Human MC receptor activation, cAMP production in cells expressing human MC3 receptor; type: cell-based; details: FreeStyle 293-F cells transiently expressing human MC3 receptor, α-MSH maximum = 100%
From the text: as §1, §2, §3, §4, §5, §6, §7

Male SD rats = test: Rat erection-inducing action; type: in vivo; details: 10 mg/kg intravenously, erections up to one hour after administration, vs vehicle, P<0.05
Protocol: Male SD rats (Charles River Laboratories Japan, Inc.) were used. A test compound (10 mg/kg) or the vehicle (20% dimethyl acetamide, 10% Cremophor (registered trademark), 70% physiological saline) was administered intravenously through the tail vein. After administration, the rats were transferred to transparent observation cages made of plastic to measure the erection times of up to one hour after administration. The measurements were carried out for five groups (3 to 7 animals per group): vehicle groups, Example compound groups (Ex 87, 88, and 89), and THIQ group, which had been known as an MC4 receptor agonist (J. Med. Chem., 45, 4589-4593 (2002)), as a positive control. For a statistical significance test, Dunnett's multiple comparison test was used for the comparison with vehicle control group, and it was determined whether there was an erection-inducing effect with a statistically significant difference (P<0.05).

Chain of human MC3 receptor (P41968 whole entry): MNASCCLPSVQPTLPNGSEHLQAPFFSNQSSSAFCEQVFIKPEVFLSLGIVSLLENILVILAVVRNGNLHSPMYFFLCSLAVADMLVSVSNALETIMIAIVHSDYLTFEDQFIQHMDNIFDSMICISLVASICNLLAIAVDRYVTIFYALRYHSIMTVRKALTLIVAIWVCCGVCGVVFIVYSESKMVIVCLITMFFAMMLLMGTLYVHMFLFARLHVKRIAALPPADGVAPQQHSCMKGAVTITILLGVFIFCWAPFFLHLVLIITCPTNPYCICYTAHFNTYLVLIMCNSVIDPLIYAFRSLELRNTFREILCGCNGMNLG
Chain of human MC1 receptor (Q01726 whole entry): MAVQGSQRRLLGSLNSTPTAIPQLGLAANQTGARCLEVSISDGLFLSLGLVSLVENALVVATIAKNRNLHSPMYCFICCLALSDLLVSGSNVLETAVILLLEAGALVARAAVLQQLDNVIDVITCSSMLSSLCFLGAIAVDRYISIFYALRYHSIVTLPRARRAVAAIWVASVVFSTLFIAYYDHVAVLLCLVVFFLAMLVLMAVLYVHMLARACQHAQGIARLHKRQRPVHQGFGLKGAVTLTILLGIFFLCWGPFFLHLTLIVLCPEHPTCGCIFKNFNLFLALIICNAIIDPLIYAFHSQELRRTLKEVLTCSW
Chain of human MC4 receptor (P32245 whole entry): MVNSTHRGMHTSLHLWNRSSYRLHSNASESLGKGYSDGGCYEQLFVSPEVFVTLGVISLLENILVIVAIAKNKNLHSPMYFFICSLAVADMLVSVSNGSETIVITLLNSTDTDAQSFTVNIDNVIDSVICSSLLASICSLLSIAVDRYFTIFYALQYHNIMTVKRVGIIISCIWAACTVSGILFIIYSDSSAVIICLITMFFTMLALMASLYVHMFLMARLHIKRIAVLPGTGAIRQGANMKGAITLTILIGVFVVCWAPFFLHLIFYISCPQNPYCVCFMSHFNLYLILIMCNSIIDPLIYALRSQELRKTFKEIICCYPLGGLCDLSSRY

SMILES	EC50 (human MC4 receptor)	EC50 (human MC1 receptor)	EC50 (human MC3 receptor)	erection-inducing effect (Male SD rats)
C[C@@H]1CN([C@@H](Cc2ccc3ccccc3c2)C(=O)O)C[C@H](C)N1C(=O)[C@@H]1CN(C(C)(C)C)C[C@H]1c1ccc(F)cc1F [Example 6, (2S)-2-[(3R,5S)-4-{[(3S,4R)-1-tert-butyl-4-(2,4-difluorophenyl)pyrrolidin-3-yl]carbonyl}-3,5-dimethylpiperazin-1-yl]-3-(2-naphthyl)propanoic acid dihydrochloride]	0.48 µM	6.4 µM	> 30 µM	
C[C@@H]1CN(C(=O)[C@@H]2CN(C(C)(C)C)C[C@H]2c2ccc(F)cc2F)CCN1C(Cc1ccc(Cl)c(Cl)c1)C(=O)O (stereo partly drawn) [Example 15]	0.49 µM			
C[C@@H]1CN(C(=O)[C@@H]2CN(C(C)(C)C)C[C@H]2c2ccc(F)cc2F)CCN1C(Cc1ccc(Cl)c(Cl)c1)C(=O)O (stereo partly drawn) [Example 16]	4.9 µM			
CC(C)(C)N1C[C@@H](C(=O)N2CCN([C@@H](Cc3ccc4ccccc4c3)C(=O)O)CC23CC3)[C@H](c2ccc(F)cc2F)C1 [Example 17]	2.4 µM			
C[C@H]1CN([C@@H](Cc2ccc(C#N)cc2)C(=O)O)CCN1C(=O)[C@@H]1CN(C(C)(C)C)C[C@H]1c1ccc(F)cc1F [Example 21]	1.7 µM			
COC[C@H]1CN([C@@H](Cc2ccc3c(c2)CCC3)C(=O)O)CCN1C(=O)[C@@H]1CN(c2ccc(F)cc2)C[C@H]1c1ccc(F)cc1F [Example 27]	1 µM			
C[C@H]1CN([C@@H](Cc2ccc3c(c2)CCC3)C(=O)O)CCN1C(=O)[C@@H]1CN(C(C)(C)CO)C[C@H]1c1ccc(F)cc1F [Example 28]	0.15 µM	3.9 µM	10 µM	
C[C@H]1CN([C@@H](Cc2ccc3c(c2)CCC3)C(=O)O)CCN1C(=O)[C@@H]1CN(c2ccc(C(F)(F)F)nn2)C[C@H]1c1ccc(F)cc1F [Example 33]	0.61 µM			
C[C@H]1CN([C@@H](Cc2ccc3c(c2)CCC3)C(=O)O)CCN1C(=O)[C@@H]1CN(C(=O)C2CC2)C[C@H]1c1ccc(F)cc1F [Example 35]	0.14 µM			
COc1ccc(C2CN(C(C)(C)C)CC2C(=O)N2CCN([C@@H](Cc3ccc4c(c3)CCC4)C(=O)O)C[C@@H]2C)cc1 (stereo partly drawn) [Example 45]	1.1 µM			
C[C@H]1CN([C@@H](Cc2ccc3c(c2)CCC3)C(=O)O)CCN1C(=O)C1CN(C(C)(C)C)CC1c1ccc(C#N)cc1F (stereo partly drawn) [Example 47]	0.062 µM	> 30 µM	11 µM	
CC[C@H]1CN([C@@H](Cc2ccc3ccccc3c2)C(=O)O)CCN1C(=O)[C@@H]1CN(C(C)=O)C[C@H]1c1ccc(F)cc1F [Example 50]	0.064 µM			
C[C@H]1CN([C@@H](Cc2c[nH]c3ccccc23)C(=O)O)CCN1C(=O)[C@@H]1CN(C(C)(C)C)C[C@H]1c1ccc(F)cc1F [Example 53]	0.19 µM			
C[C@H]1CN([C@@H](Cc2ccc3c(c2)CCC3)C(=O)O)CCN1C(=O)C1CN(C(C)(C)C)CC1c1ccc(Cl)s1 (stereo partly drawn) [Example 55]	0.27 µM			
C[C@H]1CN([C@@H](CC2CCCCC2)C(=O)O)CCN1C(=O)[C@@H]1CN(C(C)(C)C)C[C@H]1c1ccc(Cl)cc1F [Example 57]	0.12 µM	1.9 µM	2.4 µM	
C[C@H]1CN([C@@H](Cc2ccc3c(c2)CCC3)C(=O)O)CCN1C(=O)[C@@H]1CN(C2(C)CC2)C[C@H]1c1ccc(Cl)cc1F [Example 68]	0.53 µM			
C[C@H]1CN([C@@H](Cc2ccc3c(c2)CCC3)C(=O)O)CCN1C(=O)C1CN(C(C)(C)C)CC1c1ccc2c(c1)CCC2 (stereo partly drawn) [Example 83]	0.19 µM			
O=C(N[C@H](Cc1ccc(Cl)cc1)C(=O)N1CCC(Cn2cncn2)(C2CCCCC2)CC1)[C@H]1Cc2ccccc2CN1 [THIQ, reference compound]				exhibited a significant erection-inducing effect

More lines, main results first:

EC50 (human MC4 receptor)	EC50 (human MC1 receptor)	EC50 (human MC3 receptor)	SMILES	erection-inducing effect (Male SD rats)
0.048 µM		5 µM	C[C@H]1CN([C@@H](Cc2ccc(C(F)(F)F)cc2)C(=O)O)CCN1C(=O)[C@@H]1CN(C(C)(C)C)C[C@H]1c1ccc(F)cc1F [Example 13]	
0.0032 µM	15 µM	0.58 µM	CN(C)CC[C@H]1CN([C@@H](Cc2ccc3ccccc3c2)C(=O)O)CCN1C(=O)[C@@H]1CN(c2ccc(=O)n(C)n2)C[C@H]1c1ccc(F)cc1F [Example 24]	
0.0019 µM			CC(C)(C)N1C[C@@H](C(=O)N2CCN([C@@H](Cc3ccc4c(c3)CCC4)C(=O)O)C[C@@H]2CC2CC2)[C@H](c2ccc(F)cc2F)C1 [Example 36]	
0.0051 µM	0.72 µM	2.9 µM	COc1ccc(C[C@@H](C(=O)O)N2CCN(C(=O)[C@@H]3CN(C(C)(C)C)C[C@H]3c3ccc(Cl)cc3F)[C@@H](C)C2)c(F)c1 [Example 69]	
0.04 µM	2.1 µM	5.3 µM	C[C@H]1CN([C@@H](Cc2ccc(OC(F)F)cc2)C(=O)O)CCN1C(=O)[C@@H]1CN(C(C)(C)C)C[C@H]1c1ccc(Cl)cc1F [Example 72]	
0.03 µM	1.4 µM	1 µM	Cc1ccc(C[C@@](C)(C(=O)O)N2CCN(C(=O)[C@@H]3CN(C4CCOCC4)C[C@H]3c3ccc(F)cc3F)[C@@H](C)C2)c(F)c1 [Example 74]	
0.016 µM	1 µM	0.68 µM	Cc1ccc([C@H](C)[C@@H](C(=O)O)N2CCN(C(=O)[C@@H]3CN(C4CCOCC4)C[C@H]3c3ccc(Cl)cc3F)[C@@H](C)C2)cc1 [Example 78]	
0.018 µM			Cc1ccc(C[C@@H](C(=O)O)N2CCN(C(=O)C3CN(C4(C)CCOCC4)CC3c3ccc(F)cc3F)[C@@H](C)C2)c(F)c1 (stereo partly drawn) [Example 84]	
0.012 µM	1.7 µM	1.8 µM	C[C@H]1CN([C@@H](Cc2ccc(C3CC3)cc2F)C(=O)O)CCN1C(=O)[C@@H]1CN(C2CCOCC2)C[C@H]1c1ccc(Cl)cc1F [Example 92]	
